From PMC8267177, “Cyclic Peptoid-Peptide Hybrids as Versatile Molecular Transporters” (Frontiers in Chemistry, 2021)
“Also recorded” adds a separate entry of the source. Non-standard residues stand in square brackets, D forms with d. Residues, ends and D or L forms follow the SMILES beside them. *: point of attachment. RhodamineB = CCN(CC)c1ccc2c(-c3ccccc3C(=O)*)c3ccc(=[N+](CC)CC)cc-3oc2c1; Nphe = O=C(O)CNCc1ccccc1; Nlys = NCCCCNCC(=O)O

What was measured:
HeLa cells [1] = test: Localization assay: cellular uptake and organellar localization by confocal microscopy; type: cell-based, human; details: 5 µM, 5 h, 37 °C
Method: As 15-Rhod to 24-Rhod were not toxic at 5 µM the following transport experiments were carried out using this concentration. To study their cellular uptake and organellar localization, HeLa cells were treated with 5 µM of the cyclic conjugates 15-Rhod to 24-Rhod for 5 h and eventually imaged using confocal microscopy (for experimental details, see supplemental Material).
FIGURE 4 Localization of the macrocyclic conjugates 15-Rhod to 24-Rhod in HeLa cells. After incubation with a 5.0 µM solution of the respective transporters for 5 h, the cellular uptake was monitored via fluorescent confocal microscopy (Rhodamine B labeled hybrids: λ Exc = 532 nm, λ Em = 570–620 nm; MitoTracker® Green: λ Exc = 488 nm, λ Em = 490–540 nm; Hoechst 33,342: λ Exc = 405 nm, λ Em = 430–490 nm). Counterstaining with MitoTracker® Green visualized mitochondria (green). Staining with 2 μg/ml Hoechst 33,342 indicated nuclei (blue). Scale bar: 10 µm.
In an 8-well chamber slide (µ-Slide 8-Well ibidiTreat, ibidi®), 1.0 × 10^4 HeLa cells per well were cultivated for 16 h. The cyclic hybrids were diluted with DMEM to yield a 5 µM concentration. The cells were treated with the hybrids for 5 h at 37 °C. To monitor the intracellular localization, the cells were counterstained with MitoTracker® (Invitrogen) and 2 µg/mL Hoechst 33342. After washing with DPBS (3 ×), the luminescence was monitored via life-cell imaging using a Leica TCS-SPE confocal microscope (DM2500 inverse microscope, 8 Bit resolution, 1024 × 1024 pixels), equipped with a 1 Airy pinhole aperture (111.5 µm), ACS APO 63.0x/1.30 OIL UV and 40x/1.14 OIL UV objectives and the images were processed by the Leica Application Suite (LAS-AF) Version 2.1.2 build 4530 software. Images were taken with a scanning frequency of 400 Hz. Background noise was averaged by an eight-fold repetition of the scan process. The cyclic hybrids were excited at 532 nm, MitoTracker® Green at 488 nm, and Hoechst 33342 at 405 nm. The exposure was set to minimize oversaturated pixels in the final images. Fluorescence emission was measured at 570–620 nm for the detection of rhodamine B labeled hybrids, at 490–540 nm for the detection of mitochondria, and 430–490 nm for the detection of nuclei.

in vitro = type: cell-based; details: human
Method: The cytotoxicity of the macrocyclic hybrids 15–24, as well as their conjugates 15-Rhod to 24-Rhod, was examined using a standard MTT assay in human epithelial cervix carcinoma (HeLa) cells. […] ([Mosmann, 1983]; [Tolosa et al., 2015]) After treatment of HeLa cells with different concentrations of the respective macrocycles 15–24 (0.50─50 µM) for 72 h, no significant cytotoxic effects were observed. […] As shown by many research groups that Rhodamine B by itself is not efficiently entering the cells showing therefore an LD50 > 50 μM, we assume that this the toxicity of the Rhodamine moiety might be higher when increasingly localizing in the mitochondria to a higher amount.
In a 96-well plate (Corning® Costar® 3596 96-Well Cell Culture Cluster), 1.0 × 10^4 HeLa-cells per well of a 96 well plate were cultivated for 16 h. Stock solutions of the single compounds in dimethylsulfoxide were diluted to 0.50 µm, 5.00 µm, and 50.0 µm with cell culture medium (DMEM + 10% FBS + 1% P/S) to ensure a final concentration of DMSO below 0.5%. 100 µL of the prepared DMEM diluted compounds were added to each well and the cells were incubated for 72 h. All experiments were performed in triplicates. Cells that were solely treated with the culture medium containing 0.5% of DMSO served as a negative control. After incubation, the positive control (cells in DMSO plus 0.5% DMSO) was treated with 1% Triton-X. To determine the viability of the cells 20 µL of a freshly prepared solution of 3-(4,5-dimethylthiazol-2-yl)-2,5-diphenyltetrazolium bromide (MTT, 2.73 mg/mL, Sigma-Aldrich®) in culture medium were added to each well and incubated at 37 °C for 4 h. The reaction was stopped using 100 µL of Solubilization Solution / Stop Mix (CellTiter 96® Non-Radioactive Cell Proliferation Assay, Promega). After 24 h, the absorption (A) of every well at 595 nm was monitored using a 96-well plate reader (Ultra Microplate Reader ELx808, Biotech Instruments Inc.).

HeLa cells [2] = test: Cellular uptake at 4 °C and 37 °C (CLSM, Figure S1); type: cell-based, human; details: 5 µM, 2 h incubation at 4 °C and 37 °C
Text: The molecular transporters 15-Rhod, 20-Rhod and 22-Rhod are characterized by low cytotoxicity, efficient cellular uptake, and high specificity. Thus, they represent the most promising cyclic hybrids capable of the transport of different cargos into mitochondria. […] The capability of hydrophobic structures to function as molecular transporters is also known for so-called hydrophobic CPPs. However, only a few members of this substance class have been discovered yet. ([Xie et al., 2020]; [Desale et al., 2021]) It is assumed, that hydrophobic CPPs may penetrate cellular membranes in a direct, energy-independent manner dispensing with endocytosis. ([Gao et al., 2002]; [Gao et al., 2011]; [Nakayama et al., 2011]; [Guidotti et al., 2017]; [Tian et al., 2017]) The latter leads to a major challenge as molecular transporters might not escape the endosomes and get degraded instead of reaching their designated targets. […] The efficient internalization at a low temperature led us to the assumption that 22-Rhod might directly penetrate the cell membrane. However, the uptake mechanism of macrocyclic hybrids will be further examined.
Figure S1: Confocal Laser Scanning Microscopy (CLSM) images of HeLa cells after 2 h incubation with 5 µM peptoid 22-Rhod at 4 °C (top line, A) and 37 °C (bottom line, B). […]

cells = details: free dye, not efficiently entering the cells; ref many research groups (reference not given); cited from earlier work
Method: The cytotoxicity of the macrocyclic hybrids 15–24, as well as their conjugates 15-Rhod to 24-Rhod, was examined using a standard MTT assay in human epithelial cervix carcinoma (HeLa) cells. […] ([Mosmann, 1983]; [Tolosa et al., 2015]) After treatment of HeLa cells with different concentrations of the respective macrocycles 15–24 (0.50─50 µM) for 72 h, no significant cytotoxic effects were observed.

Compound | Cellular uptake efficiency (HeLa cells [1]; confocal microscopy of Rhodamine B fluorescence (Exc 532 nm, Em 570–620 nm)) | Organellar localization (mitochondria) (HeLa cells [1]; counterstaining with MitoTracker Green, confocal microscopy) | IC50 at 72 h (in vitro) [µM] | Mitochondrial uptake at 37 °C and at 4 °C (HeLa cells [2]) | LD50 of Rhodamine B by itself (cells) [µM]
CCN(CC)c1ccc2c(-c3ccccc3C(=O)NCCCCN3CC(=O)N(Cc4ccccc4)CC(=O)N(Cc4ccccc4)CC(=O)N(Cc4ccccc4)CC(=O)N[C@@H](Cc4ccccc4)C(=O)N[C@@H](Cc4ccccc4)C3=O)c3ccc(=[N+](CC)CC)cc-3oc2c1 [22-Rhod, cyclo-(l-Phe-N1ph-N1ph-N1ph-N4am(Rhod)-l-Phe)] (cyclo(FF[Nlys](RhodamineB)[Nphe][Nphe][Nphe])) | efficiently taken up; also recorded: high cellular uptake efficiency | mitochondrial specificity | 44 | occurring at 37 °C as well as at 4 °C | –
CCN(CC)c1ccc2c(-c3ccccc3C(=O)O)c3ccc(=[N+](CC)CC)cc-3oc2c1 [Rhodamine B] | – | – | – | – | > 50
